Experiments:
KB [1] = test: Cytotoxicity against human KB cells after 3 days by Resazurin Microplate Assay; format: functional, cell-based; conditions: 72 h
NCI-H187 [2] = test: Cytotoxicity against human NCI-H187 cells after 5 days by Resazurin Microplate Assay; format: functional, cell-based; conditions: NCI-H187, 120 h
Vero [3] = test: Cytotoxicity against african green monkey Vero cells by green fluorescent protein based assay; format: cell-based; conditions: Chlorocebus sabaeus
NCI-H187 [4] = test: Selectivity ratio of IC50 of ellipticine to IC50 of compound for human NCI-H187 cells; format: functional
Vero [5] = test: Selectivity ratio of IC50 for african green monkey Vero cells to IC50 for human NCI-H187 cells
KB [6] = test: Cytotoxicity against human KB cells at >100 uM after 3 days by Resazurin Microplate Assay; format: functional, cell-based
Vero [7] = test: Cytotoxicity against african green monkey Vero cells at >100 uM by green fluorescent protein based assay; format: cell-based, Chlorocebus sabaeus
NCI-H187 [8] = test: Cytotoxicity against human NCI-H187 cells at >100 uM after 5 days by Resazurin Microplate Assay; format: functional, cell-based
Vero [9] = test: Selectivity ratio of IC50 for african green monkey Vero cells to IC50 for human KB cells

| SMILES | IC50 (KB [1]) | IC50 (NCI-H187 [2]) | IC50 (KB [6]) | IC50 (NCI-H187 [8]) | other results |
| --- | --- | --- | --- | --- | --- |
| COc1cc(O)c2c(c1)OC(c1ccccc1)C(OC)/C2=N\O (stereo unspecified) | 23.9 µM | 0.23 µM | – | – | IC50 (Vero [3]): 41.2 µM; fold change (FC) (NCI-H187 [4]): 12; fold change (FC) (Vero [5]): 180 |
| COc1cc(OC)c2c(c1)OC(c1ccccc1)C/C2=N\O (stereo unspecified) | – | 53.2 µM | Not Active | – | – |
| COc1ccc(C2C/C(=N\O)c3c(OC)cc(OC)cc3O2)cc1 (stereo unspecified) | 43.1 µM | 4.04 µM | – | – | IC50 (Vero [7]): Non-toxic |
| COc1ccc(C2CC(O)c3c(OC)cc(OC)cc3O2)cc1 (stereo unspecified) | – | – | Not Active | Not Active | – |
| COc1cc(O)c2c(=O)c(OC)c(-c3ccccc3)oc2c1 | – | – | Not Active | Not Active | IC50 (Vero [7]): Non-toxic |
| COc1cc(O)c2c(c1)OC(c1ccccc1)C/C2=N/O (stereo unspecified) | 0.26 µM | 0.014 µM | – | – | IC50 (Vero [3]): 2.67 µM; fold change (FC) (NCI-H187 [4]): 200; fold change (FC) (Vero [5]): 190; fold change (FC) (Vero [9]): 10 |
| O/N=C1\CC(c2ccccc2)Oc2cc(O)cc(O)c21 (stereo unspecified) | 84.9 µM | 2.32 µM | – | – | IC50 (Vero [7]): Non-toxic |
| COc1cc(OC)c2c(c1)OC(c1ccccc1)CC2O (stereo unspecified) | 92.1 µM | – | – | Not Active | – |
| COc1cc(O)c(C(=O)CCc2ccccc2)c(O)c1 | – | 9.7 µM | Not Active | – | – |
| COc1cc(O)c(C(=O)CCc2ccccc2)c(OC)c1 | – | – | Not Active | Not Active | – |
| COc1ccc(CCC(=O)c2c(O)cc(OC)cc2OC)cc1 | – | – | Not Active | Not Active | – |
| COc1cc(O)c2c(c1)O[C@H](c1ccccc1)[C@H](OC)C2=O (mixture of isomers) | 30.4 µM | 98.2 µM | – | – | – |
| COc1cc(O)c2c(c1)O[C@H](c1ccccc1)[C@H](OC)[C@@H]2O (racemic) | 56.8 µM | 95.6 µM | – | – | – |
| COc1ccc(C2CC(=O)c3c(OC)cc(OC)cc3O2)cc1 (racemic) | 78.8 µM | 25.1 µM | – | – | – |
| COc1cc(OC)c2c(=O)cc(-c3ccccc3)oc2c1 [CHRYSIN DIMETHYL ETHER] | – | – | Not Active | Not Active | IC50 (Vero [7]): Non-toxic |
| COc1cc(OC)c2c(c1)OC(c1ccccc1)CC2=O (stereo unspecified) [DIMETHYLPINOCEMBRIN] | 39.9 µM | 33.1 µM | – | – | – |
| Cc1c2ccncc2c(C)c2c1[nH]c1ccccc12 [ELLIPTECINE] | 1.79 µM | 2.77 µM | – | – | IC50 (Vero [3]): 2.29 µM |
| O=C1C[C@@H](c2ccccc2)Oc2cc(O)cc(O)c21 [PINOCEMBRIN] | 99.2 µM | 95.5 µM | – | – | – |
| COc1cc(O)c2c(c1)O[C@H](c1ccccc1)CC2=O [PINOSTROBIN] | – | – | Not Active | Not Active | – |
| COc1cc(O)c2c(=O)cc(-c3ccccc3)oc2c1 [TECHTOCHRYSIN] | – | – | Not Active | Not Active | IC50 (Vero [7]): Non-toxic |
| COc1ccc(-c2cc(=O)c3c(OC)cc(OC)cc3o2)cc1 [TRIMETHYLAPIGENIN] | – | – | Not Active | Not Active | IC50 (Vero [7]): Non-toxic |
